Patent US20150073005A1, “COMPOSITION FOR HAIR GROWTH” (ASAHI GLASS COMPANY, LIMITED, priority 2012, published 2015)

Test system: C3H/HeNSIc mouse
Details: in vivo
From the text: Hairs on the back of each C3H/HeNSIc mouse (male, 8 weeks old) were carefully dehaired in an area of 2 cm×3 cm to form a medicine application surface. The next day (the day before initiation of the test), mice which were confirmed to have no damage on the application surface of the back, to have a pink color over the entire application surface and to be in the telogen stage of hair growth, were bred in a stainless steel cage (185 W×260 D×175 H (mm)) in three groups each group consisting of 10 mice.
Every day, the application surface was inspected before the application, and the day on which hair growth was observed, was taken as the hair growth day.

## CC(C)OC(=O)CCC/C=C\C[C@@H]1[C@@H](/C=C/C(F)(F)COc2ccccc2)[C@H](O)C[C@@H]1O [0.0015% Tafluprost, Tafluprost]
  Blackening of the skin at the application surface as visually observed: ^aHair growth without blackening of the skin as visually observed.
